Results from PubChem BioAssay (NCI).
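Step 1: Grow cells in 96-well plates. Step 2: Expose to compound for 48 hours at 5 concentrations. Step 3: Interpolate endpoints linearly; if unreached, use highest concentration. Abbreviation: GI50, concentration required for 50% inhibition of growth. TGI: concentration producing complete growth inhibition.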

Experiments:
Assay in all cases: NCI-60 cell line screen, 48 h; in the data active means GI50 below about 0.43 µM; inactive means the rest
[1] = tested on: SK-MEL-2 melanoma
[2] = tested on: CAKI-1 renal
[3] = tested on: EKVX NSCLC
[4] = tested on: LOX IMVI melanoma
[5] = tested on: A498 renal
[6] = tested on: HCT-15 colon
[7] = tested on: OVCAR-4 ovarian
[8] = tested on: T-47D breast
[9] = tested on: HCC-2998 colon
[10] = tested on: OVCAR-8 ovarian
[11] = tested on: COLO 205 colon
[12] = tested on: HT29 colon
[13] = tested on: HS 578T breast
[14] = tested on: MCF7 breast
[15] = tested on: SN12C renal
[16] = tested on: SF-295 CNS
[17] = tested on: MDA-MB-231 breast
[18] = tested on: CCRF-CEM leukemia
[19] = tested on: NCI-H226 lung
[20] = tested on: OVCAR-5 ovarian
[21] = tested on: MDA-MB-435
[22] = tested on: HOP-62 NSCLC
[23] = tested on: 786-0 renal
[24] = tested on: HL-60(TB) leukemia
[25] = tested on: NCI-H460 lung
[26] = tested on: HOP-92 NSCLC
[27] = tested on: OVCAR-3 ovarian
[28] = tested on: M14 melanoma
[29] = tested on: HCT-116 colon
[30] = tested on: MALME-3M melanoma
[31] = tested on: K-562 leukemia
[32] = tested on: SF-539 CNS
[33] = tested on: SW-620 colon
[34] = tested on: SK-MEL-5 melanoma
[35] = tested on: NCI-H23 lung
[36] = tested on: SK-OV-3 ovarian
[37] = tested on: UACC-62 melanoma
[38] = tested on: UACC-257 melanoma
[39] = tested on: TK-10 renal
[40] = tested on: UO-31 renal
[41] = tested on: ACHN renal
[42] = tested on: NCI-H522 lung
[43] = tested on: NCI/ADR-RES ovarian
[44] = tested on: U251 CNS
[45] = tested on: RPMI-8226 leukemia
[46] = tested on: A549 NSCLC
[47] = tested on: SK-MEL-28 melanoma
[48] = tested on: SF-268 CNS
[49] = tested on: SR leukemia
[50] = tested on: KM12 colon
[51] = tested on: SNB-75 CNS
[52] = tested on: SNB-19 CNS
[53] = tested on: PC-3 prostate
[54] = tested on: MOLT-4 leukemia
[55] = tested on: IGROV1 ovarian
[56] = tested on: DU-145 prostate
[57] = tested on: BT-549 breast

Cc1cc2c(cc1Cl)N1C(=O)NS(=O)(=O)N=C1NS2(=O)=O
inactive: GI50 [1] > 100 µM | GI50 [2] > 100 µM | GI50 [3] > 100 µM | GI50 [4] > 100 µM | GI50 [5] > 100 µM | GI50 [6] > 100 µM | GI50 [7] > 100 µM | GI50 [8] > 100 µM | GI50 [9] > 100 µM | GI50 [10] > 100 µM | GI50 [11] > 100 µM | GI50 [12] > 100 µM | GI50 [13] > 100 µM | GI50 [14] > 100 µM | GI50 [15] > 100 µM | GI50 [16] > 100 µM | GI50 [17] > 100 µM | GI50 [18] > 100 µM | GI50 [19] > 100 µM | GI50 [20] > 100 µM | GI50 [21] > 100 µM | GI50 [22] > 100 µM | GI50 [23] > 100 µM | GI50 [24] > 100 µM | GI50 [25] > 100 µM | GI50 [26] > 100 µM | GI50 [27] > 100 µM | GI50 [28] > 100 µM | GI50 [29] > 100 µM | GI50 [30] > 100 µM | GI50 [31] > 100 µM | GI50 [32] > 100 µM | GI50 [33] > 100 µM | GI50 [34] > 100 µM | GI50 [35] > 100 µM | GI50 [36] > 100 µM | GI50 [37] > 100 µM | GI50 [38] > 100 µM | GI50 [39] > 100 µM | GI50 [40] > 100 µM | GI50 [41] > 100 µM | GI50 [42] > 100 µM | GI50 [43] > 100 µM | GI50 [44] > 100 µM | GI50 [45] > 100 µM | GI50 [46] > 100 µM | GI50 [47] > 100 µM | GI50 [48] > 100 µM | GI50 [49] > 100 µM | GI50 [50] > 100 µM | GI50 [51] > 100 µM | GI50 [52] > 100 µM | GI50 [53] > 100 µM | GI50 [54] > 100 µM | GI50 [55] > 100 µM | GI50 [56] > 100 µM | GI50 [57] > 100 µM
> 100 µM: TGI [1] | TGI [2] | TGI [3] | TGI [4] | TGI [5] | TGI [6] | TGI [7] | TGI [8] | TGI [9] | TGI [10] | TGI [11] | TGI [12] | TGI [13] | TGI [14] | TGI [15] | TGI [16] | TGI [17] | TGI [18] | TGI [19] | TGI [20] | TGI [21] | TGI [22] | TGI [23] | TGI [24] | TGI [25] | TGI [26] | TGI [27] | TGI [28] | TGI [29] | TGI [30] | TGI [31] | TGI [32] | TGI [33] | TGI [34] | TGI [35] | TGI [36] | TGI [37] | TGI [38] | TGI [39] | TGI [40] | TGI [41] | TGI [42] | TGI [43] | TGI [44] | TGI [45] | TGI [46] | TGI [47] | TGI [48] | TGI [49] | TGI [50] | TGI [51] | TGI [52] | TGI [53] | TGI [54] | TGI [55] | TGI [56] | TGI [57]
